Measurements published in patent publication US20130079408A1, “PERACID AND 2-HYDROXY ORGANIC ACID COMPOSITIONS AND METHODS FOR TREATING ITEMS” (Fresh Express Incorporated, priority 2009, published 2013).

Assays:
[1] = test system: indigenous microorganisms (Aerobic Plate Counts); assay type: cell-based
[2] = test system: Pseudomonas aeruginosa (ATCC 9027); assay: Non-food surface coupon test (Example 6); assay type: cell-based; settings: 90 sec residence time
[3] = 40 C; cited from earlier work
E. coli K12 = assay: Attached cells challenge test on produce leaves (Example 1); assay type: cell-based; settings: PAA 0 ppm, 45 F, 45 s
Listeria innocua = assay: as above; assay type: cell-based; settings: PAA 0 ppm, 45 F, 45 s
[4] = test system: Listeria innocua ATCC 33090; assay: Suspended cells challenge test at 20 s residence time, no surfactant (Example 2); assay type: cell-based; settings: Peroxyacetic acid 0 ppm
[5] = test system: Lactobacillus plantarum 14917; assay: as above; assay type: cell-based; settings: Peroxyacetic acid 0 ppm

## CC(=O)OO [Peroxyacetic acid, peroxyacetic acid]
[1]
  Aerobic Plate Counts Log Reduction: 0.7 Log cfu/g
  Aerobic Plate Counts after wash: 2.7 Log cfu/g
  log10 reduction of indigenous microorganism on the Romaine leaf: 0.7 log10
[2]; PA 60 ppm, LA 0 ppm
  Log reductions, attached on glass coupons: 0.2
  Log reductions, attached on plastic coupons: 1.2
  Log reductions, attached on stainless steel coupons: 1.5
[2]; PA 80 ppm, LA 0 ppm
  Log reductions, attached on glass coupons: 0.0
  Log reductions, attached on plastic coupons: 0.9
[2]; PA 100 ppm, LA 0 ppm
  Log reductions, attached on stainless steel coupons: 1.4
  Log reductions, attached on wood coupons: 1.0
[2]; PA 140 ppm, LA 0 ppm
  Log reductions, attached on wood coupons: 0.8
[3]
  apparent equilibrium constant Kap: about 2.21

## CC(O)C(=O)O (centres unmarked) [Lactic acid, lactic acid]
E. coli K12; LA 0.6%
  Attached E. Coli, Romaine: 0.24
  Attached E. Coli, Spinach: 0.09
E. coli K12; LA 0.9%
  Attached E. Coli, Romaine: 0.37
  Attached E. Coli, Spinach: 0.42
E. coli K12; LA 1.2%
  Attached E. Coli, Romaine: 1.28
  Attached E. Coli, Spinach: 0.81
Listeria innocua; LA 0.6%
  Attached Listeria, Romaine: 1.1
  Attached Listeria, Spinach: 0.1
Listeria innocua; LA 0.9%
  Attached Listeria, Romaine: 1.4
  Attached Listeria, Spinach: 0.2
Listeria innocua; LA 1.2%
  Attached Listeria, Romaine: 1.5
  Attached Listeria, Spinach: 0.2
[4]; Lactic Acid 2000 ppm
  log reduction of suspended Listeria innocua cells: 0.08
[4]; Lactic Acid 2500 ppm
  log reduction of suspended Listeria innocua cells: 0.19
[4]; Lactic Acid 3000 ppm
  log reduction of suspended Listeria innocua cells: 0.05
[5]; Lactic Acid 2000 ppm
  log reduction of suspended Lactobacillus plantarum cells: 0.00
[5]; Lactic Acid 2500 ppm
  log reduction of suspended Lactobacillus plantarum cells: 0.02
[5]; Lactic Acid 3000 ppm
  log reduction of suspended Lactobacillus plantarum cells: 0.01
[2]; PA 0 ppm, LA 1,250 ppm
  Log reductions, attached on glass coupons: 0.4
  Log reductions, attached on stainless steel coupons: 1.6
[2]; PA 0 ppm, LA 2,500 ppm
  Log reductions, attached on glass coupons: 1.7
  Log reductions, attached on plastic coupons: 0.6
  Log reductions, attached on stainless steel coupons: 1.9
  Log reductions, attached on wood coupons: 1.4
[2]; PA 0 ppm, LA 5,000 ppm
  Log reductions, attached on plastic coupons: 1.2
[2]; PA 0 ppm, LA 7,500 ppm
  Log reductions, attached on wood coupons: 3.6
